This is an account of results in patent US6337317B1, “Antimicrobial peptides and methods of use thereof” (priority 2000, dated 2002).

Where a SMILES comes first, the peptide text is derived from it.

By MIC is commonly meant the least concentration at which growth counts as inhibited.

The test system of assay [1] is S. aureus R147. Type of assay: cell-based, Staphylococcus aureus. The protocol: (§1) The biological activity of the peptides can be determined by standard methods known to those of skill in the art, such as a “minimal inhibitory concentration” (MIC) assay (see Wu and Hancock (1999) J. Biol Chem. 274:29-35 and Examples section). A MIC assay allows the determination of the lowest concentration of peptide that inhibits the multiplication and growth of mircoorganisms. Changes in the microorganism population are assessed by measuring the optical density (OD) of the population in broth or medium. Peptide MIC's can be determined for a variety of micoorganisms under a variety of conditions. Another assay for the biological activity of the peptides is a “fractional inhibitory concentration” (FIC) assay. This assay is especially useful for determining synergistic effects between the peptides of the invention, and between invention peptides and other compounds such as known antibiotics. A FIC assay employs the strategy of a MIC assay with additional variable(s), e.g., known antibiotics. […] The FIC is calculated by looking at the impact of an antibiotic on the MIC of the peptide and the reciprocal relationship. […] As used herein, FIC can be determined as follows: […]
(§2) MIC Assay p The minimum inhibitory concentrations of (MIC) of several invention peptides were determined using methods described elsewhere (Wu and Hancock, (1999) J. Biol Chem. 274:29-35). […]

Assay [2] has as its system S. aureus SAP0017. It is filed as cell-based, Staphylococcus aureus. As for the experimental part: as §1, §2

Regarding `CC(C)[C@@H]1NC(=O)[C@H](CCCNC(=N)N)NC(=O)[C@H](Cc2ccccc2)NC(=O)[C@@H](NC(=O)[C@H](Cc2c[nH]c3ccccc23)NC(=O)[C@H](CCCNC(=N)N)NC(=O)[C@@H](N)CCCNC(=N)N)CSSC[C@@H](C(=O)N[C@@H](CCCNC(=N)N)C(N)=O)NC(=O)[C@H](CCCCN)NC(=O)[C@H](CCCNC(=N)N)NC(=O)[C@H](Cc2ccc(O)cc2)NC(=O)[C@@H]2CSSC[C@H](NC1=O)C(=O)N[C@@H](Cc1ccc(O)cc1)C(=O)N[C@@H](CCCNC(=N)N)C(=O)NCC(=O)N[C@@H](Cc1ccccc1)C(=O)N2` [Polyphemusin I] (HELM PEPTIDE1{R.R.W.C.F.R.V.C.Y.R.G.F.C.Y.R.K.C.R.[am]}$PEPTIDE1,PEPTIDE1,4:R3-17:R3|PEPTIDE1,PEPTIDE1,8:R3-13:R3$$$V2.0; N-terminus and C-terminus assumed), the MIC in assay [1] and in assay [2] was 0.5 µg/mL throughout.
